From PubChem BioAssay AID248 (DTP/NCI, 2004)
Where “and” joins values, the source holds several entries; their conditions need not be identical. Equal values may be shown once. Toxic doses and inconclusive results are not listed. Cut-off read from the data, not from the text of the source: active = T/C of 150% or more; inactive = T/C below 125%.

Test system: L1210 leukemia ip in BDF1 mice, survival T/C
Experiment: NCI In Vivo Anticancer Drug Screen. Data for tumor model L1210 Leukemia (intraperitoneal) in B6D2F1 (BDF1) mice
Settings: endpoint: mean survival time, higher = longer survival
Procedure, shortened: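 Transplanted-tumor mice were given test agent; controls received vehicle only. Survival readings from the two groups were divided (treated over control).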

[1] = dose: 100.0 mg/kg/injection, schedule: Q01DX001 (ip), vehicle: Klucel (hydroxypropylcellulose) (HPC)
[2] = dose: 100.0 mg/kg/injection, schedule: Q01DX009 (ip), vehicle: Klucel (hydroxypropylcellulose) (HPC)
[3] = dose: 100.0 mg/kg/injection, schedule: Q04DX002 (ip), vehicle: Klucel (hydroxypropylcellulose) (HPC)
[4] = dose: 200.0 mg/kg/injection, schedule: Q01DX001 (ip), vehicle: Klucel (hydroxypropylcellulose) (HPC)
[5] = dose: 200.0 mg/kg/injection, schedule: Q01DX009 (ip), vehicle: Klucel (hydroxypropylcellulose) (HPC)
[6] = dose: 200.0 mg/kg/injection, schedule: Q04DX002 (ip), vehicle: Klucel (hydroxypropylcellulose) (HPC)
[7] = dose: 400.0 mg/kg/injection, schedule: Q01DX001 (ip), vehicle: Klucel (hydroxypropylcellulose) (HPC)
[8] = dose: 400.0 mg/kg/injection, schedule: Q01DX009 (ip), vehicle: Klucel (hydroxypropylcellulose) (HPC)
[9] = dose: 400.0 mg/kg/injection, schedule: Q04DX002 (ip), vehicle: Klucel (hydroxypropylcellulose) (HPC)
[10] = dose: 100.0 mg/kg/injection, schedule: Q01DX001 (ip), vehicle: carboxymethylcellulose (CMC)
[11] = dose: 200.0 mg/kg/injection, schedule: Q01DX001 (ip), vehicle: carboxymethylcellulose (CMC)
[12] = dose: 400.0 mg/kg/injection, schedule: Q01DX001 (ip), vehicle: carboxymethylcellulose (CMC)
[13] = dose: 100.0 mg/kg/injection, schedule: Q01DX001 (ip), vehicle: saline
[14] = dose: 200.0 mg/kg/injection, schedule: Q01DX001 (ip), vehicle: saline
[15] = dose: 400.0 mg/kg/injection, schedule: Q01DX001 (ip), vehicle: saline
[16] = dose: 100.0 mg/kg/injection, schedule: Q04DX003 (ip), vehicle: saline with Tween-80
[17] = dose: 200.0 mg/kg/injection, schedule: Q04DX003 (ip), vehicle: saline with Tween-80
[18] = dose: 400.0 mg/kg/injection, schedule: Q04DX003 (ip), vehicle: saline with Tween-80
[19] = dose: 25.0 mg/kg/injection, schedule: Q01DX009 (ip), vehicle: Klucel (hydroxypropylcellulose) (HPC)
[20] = dose: 25.0 mg/kg/injection, schedule: Q04DX002 (ip), vehicle: Klucel (hydroxypropylcellulose) (HPC)
[21] = dose: 50.0 mg/kg/injection, schedule: Q01DX009 (ip), vehicle: Klucel (hydroxypropylcellulose) (HPC)
[22] = dose: 50.0 mg/kg/injection, schedule: Q04DX002 (ip), vehicle: Klucel (hydroxypropylcellulose) (HPC)

Measured: T/C

O=C1CN=C(c2ccccn2)c2cc(Br)ccc2N1
inactive: dose: 3.1 mg/kg/injection, schedule: Q03HX024 (ip), vehicle: Klucel (hydroxypropylcellulose) (HPC) 98 % of control | dose: 6.2 mg/kg/injection, schedule: Q03HX024 (ip), vehicle: Klucel (hydroxypropylcellulose) (HPC) 100 % of control | dose: 12.5 mg/kg/injection, schedule: Q03HX024 (ip), vehicle: Klucel (hydroxypropylcellulose) (HPC) 98 % of control | dose: 25.0 mg/kg/injection, schedule: Q03HX024 (ip), vehicle: Klucel (hydroxypropylcellulose) (HPC) 94 % of control | dose: 50.0 mg/kg/injection, schedule: Q03HX024 (ip), vehicle: Klucel (hydroxypropylcellulose) (HPC) 97 % of control | [1] 96 % of control | [2] 94 % of control | [3] 101 % of control and 109 % of control | dose: 100.0 mg/kg/injection, schedule: Q04DX003 (ip), vehicle: Klucel (hydroxypropylcellulose) (HPC) 101 % of control | dose: 119.0 mg/kg/injection, schedule: Q01DX001 (ip), vehicle: Klucel (hydroxypropylcellulose) (HPC) 98 % of control | dose: 178.0 mg/kg/injection, schedule: Q01DX001 (ip), vehicle: Klucel (hydroxypropylcellulose) (HPC) 98 % of control | [4] 93 % of control | [5] 106 % of control | [6] 93 % of control and 98 % of control | dose: 200.0 mg/kg/injection, schedule: Q04DX003 (ip), vehicle: Klucel (hydroxypropylcellulose) (HPC) 97 % of control | dose: 266.0 mg/kg/injection, schedule: Q01DX001 (ip), vehicle: Klucel (hydroxypropylcellulose) (HPC) 89 % of control | [7] 96 % of control | [8] 96 % of control | [9] 92 % of control | dose: 400.0 mg/kg/injection, schedule: Q04DX003 (ip), vehicle: Klucel (hydroxypropylcellulose) (HPC) 101 % of control | dose: 600.0 mg/kg/injection, schedule: Q01DX001 (ip), vehicle: Klucel (hydroxypropylcellulose) (HPC) 106 % of control

O=C(COc1ccc(Cl)cc1C(=O)O)NCc1cccc(NC(=O)Nc2ccc(S(=O)(=O)F)cc2)c1
inactive: [1] 96 % of control | [4] 104 % of control | [7] 105 % of control

Cc1[nH]c2ccccc2c1/C=C/c1c[nH]c2ccccc12
inactive: dose: 50.0 mg/kg/injection, schedule: Q01DX001 (ip), vehicle: carboxymethylcellulose (CMC) 93 % of control | [10] 91 % of control | [11] 98 % of control | [12] 91 % of control

COC(=O)c1nc2ccc([N+](=O)[O-])cc2n1O
inactive: [13] 101 % of control | [14] 93 % of control | [15] 96 % of control

CCOc1cc(OCC)c(/C=C/[N+](=O)[O-])c(OCC)c1
inactive: [3] 87 % of control | [6] 97 % of control | [9] 100 % of control

CCOC(=O)Nc1ccc(Cl)cc1Cl
inactive: [16] 97 % of control | [17] 105 % of control | [18] 87 % of control

N=C(N)c1ccc(OCCCCCCOc2ccc(C(=N)N)cc2I)cc1
inactive: dose: 6.25 mg/kg/injection, schedule: Q01DX Z (oral), vehicle: saline 103 % of control | dose: 12.5 mg/kg/injection, schedule: Q01DX Z (oral), vehicle: saline 103 % of control | dose: 25.0 mg/kg/injection, schedule: Q01DX Z (oral), vehicle: saline 97 % of control | dose: 50.0 mg/kg/injection, schedule: Q01DX Z (oral), vehicle: saline 101 % of control | dose: 100.0 mg/kg/injection, schedule: Q01DX Z (oral), vehicle: saline 100 % of control | dose: 200.0 mg/kg/injection, schedule: Q01DX Z (oral), vehicle: saline 100 % of control

C[C@]12CC[C@@H]3c4cc([N+]#N)c([O-])cc4CC[C@H]3[C@@H]1CCC2=O
inactive: [19] 103 % of control | [20] 96 % of control | [21] 92 % of control | [22] 122 % of control | [3] 100 % of control and 101 % of control

O=c1oc(-c2ccccc2NS(=O)(=O)c2ccccc2)nc2cc(Cl)ccc12
inactive: [2] 103 % of control | [5] 104 % of control | [8] 110 % of control

O=C(N/N=C/c1ccc(Cl)cc1)c1ccc(Cl)cc1
inactive: [16] 105 % of control | [17] 98 % of control | [18] 91 % of control

CCOC1(OCC)CCS(=O)(=O)C1c1ccccc1 (centres undefined)
inactive: dose: 100.0 mg/kg/injection, schedule: Q01DX001 (ip), vehicle: acetone 104 % of control | dose: 100.0 mg/kg/injection, schedule: Q01DX009 (ip), vehicle: acetone 98 % of control | dose: 200.0 mg/kg/injection, schedule: Q01DX001 (ip), vehicle: acetone 98 % of control | dose: 200.0 mg/kg/injection, schedule: Q01DX009 (ip), vehicle: acetone 104 % of control | dose: 400.0 mg/kg/injection, schedule: Q01DX001 (ip), vehicle: acetone 96 % of control | dose: 400.0 mg/kg/injection, schedule: Q01DX009 (ip), vehicle: acetone 100 % of control

Cc1csc2c1c(N)nc(=O)n2C1OC(CO)C(O)C1O (centres undefined)
inactive: dose: 100.0 mg/kg/injection, schedule: Q01DX005 (ip), vehicle: saline 112 % of control | dose: 200.0 mg/kg/injection, schedule: Q01DX005 (ip), vehicle: saline 102 % of control

O=C(Nc1ccc2ccccc2c1)c1ccc(F)cc1
inactive: [2] 97 % of control | [5] 102 % of control | [8] 94 % of control

O=C(O)CC1(C(=O)O)CC2(Cl)C(Cl)=C(Cl)C1(Cl)C2(Cl)Cl (centres undefined)
inactive: [16] 107 % of control | [17] 112 % of control

O=[N+]([O-])c1ccc(N2N=NC3CC/C(=C\c4cccc([N+](=O)[O-])c4)C32N2CCOCC2)cc1 (centres undefined)
inactive: [20] 104 % of control | [22] 101 % of control | [3] 88 % of control

CC(C)(CC(=O)O)Cc1ccccc1
inactive: dose: 50.0 mg/kg/injection, schedule: Q01DX009 (ip), vehicle: saline with Tween-80 101 % of control | dose: 100.0 mg/kg/injection, schedule: Q01DX009 (ip), vehicle: saline with Tween-80 93 % of control | dose: 200.0 mg/kg/injection, schedule: Q01DX009 (ip), vehicle: saline with Tween-80 101 % of control

O=[N+]([O-])c1ccc(N/N=C(\c2ccccc2)C2CCC2)c([N+](=O)[O-])c1
inactive: [22] 99 % of control | [3] 96 % of control | [6] 96 % of control

C=Cc1c[nH]c(=O)[nH]c1=O
inactive: [20] 94 % of control | [22] 94 % of control | [3] 102 % of control

c1cnc[c]([Hg][c]2cccnc2)c1
inactive: dose: 12.5 mg/kg/injection, schedule: Q01DX009 (ip), vehicle: Klucel (hydroxypropylcellulose) (HPC) 91 % of control | dose: 12.5 mg/kg/injection, schedule: Q04DX002 (ip), vehicle: Klucel (hydroxypropylcellulose) (HPC) 98 % of control | [19] 88 % of control | [20] 98 % of control | [21] 95 % of control | [22] 103 % of control

O=C(OCc1ccccc1CN1CCOCC1)c1cccc(Br)c1
inactive: [20] 93 % of control | [22] 95 % of control and 108 % of control | [3] 108 % of control | [6] 108 % of control and 92 % of control

COC1OC(CBr)C(OC(=O)c2ccccc2)C(OC(=O)c2ccccc2)C1OC(=O)c1ccccc1 (centres undefined)
inactive: [3] 101 % of control | [6] 96 % of control | [9] 90 % of control

CSc1ccc(OC(=O)Oc2ccc(SC)cc2)cc1
inactive: [10] 97 % of control | [11] 95 % of control | [12] 92 % of control

NS(=O)(=O)c1ccc(N=Nc2ccc(O)c3ncccc23)cc1
inactive: [13] 101 % of control | [14] 98 % of control | [15] 98 % of control

CCCCCC(C)(O)CC (centres undefined)
inactive: [13] 93 % of control | [14] 102 % of control | [15] 96 % of control

COc1cccc(C(=NC(=O)c2ccccc2)c2ccccc2)c1
inactive: [2] 100 % of control | [5] 97 % of control | [8] 91 % of control

CC(=O)C(C)CCOC1(C)OCCC1C (centres undefined)
inactive: dose: 50.0 mg/kg/injection, schedule: Q01DX001 (ip), vehicle: saline 103 % of control | [13] 116 % of control | [14] 100 % of control | [15] 103 % of control

CCOC(=O)/C=C(\CC(=O)OCC)Nc1ccc(C(=O)c2ccccc2)cc1
inactive: [14] 89 % of control
